Test results reported in patent publication US20250195553A1, “Use of Genipin-1-B-D-Gentiobioside in Preparation of Drug” (Guizhou Bailing Group Pharmaceutical Co., Ltd., priority 2023, published 2025).
Several values for one entry are separate records, joined by “and”; a condition that tells them apart may be missing. Equal entries are not always repeated. Where two headings read alike, the source gives them in different places.

Assays:
[1] = system: Human Coronavirus 229E (HCoV-229E); format: in vivo; conditions: 4 days
SARS-CoV-2 = test: Virus titer in lung tissue homogenates of SARS-CoV-2 infected mice (TCID50 on VERO E6 cells); format: in vivo, hACE2 transgenic C57BL/6 mice
Procedure: 2.1 Grouping and Drug Administration: hACE2 transgenic C57BL/6 mice were divided into four groups, namely the blank control group, the SARS-CoV-2 infection group, the Genipin-1-β-D-gentiobioside (37.5 mg/kg) treatment group, and the Genipin-1-β-D-gentiobioside (75 mg/kg) treatment group, with 8 mice in each group. Except for the normal group, which received intranasal administration of Phosphate Buffered Saline (PBS), the other groups were infected with 10^4 Plaque Forming Unit (PFU) of Severe Acute Respiratory Syndrome Coronavirus 2 (SARS-CoV-2) virus via intranasal instillation. Two hours' post-infection, the treatment groups received intraperitoneal injections of the drug once daily for 5 consecutive days. Mouse deaths were recorded daily after infection, and the 5-day mortality rate was calculated. At the end of the experiment, the lung tissues were collected and homogenized for virus titer detection. […]
The well-grown VERO E6 cells were inoculated into a 96-well plate at a density of 1×10^4 cells per well and cultured for another 24 hours. […] The number of wells showing CPE at each concentration gradient was recorded, and the Tissue Culture Infectious Dose 50% (TCID50) value for VERO E6 cells was calculated.

[2] = system: Human Respiratory Syncytial Virus (RSV); test: RSV viral load in mouse lung tissue (RT-PCR), nebulization; format: in vivo
Procedure: […] Each group consisted of 10 mice, with an equal number of males and females. Except for the normal control group, all mice were lightly anesthetized with isoflurane and infected with respiratory syncytial virus (RSV) via intranasal administration, with each mouse receiving 35 μl of the virus. On the day of infection, the treatment groups began inhalation administration. Each group received nebulization for 25 minutes once daily for four consecutive days. The normal control group and the model control group received nebulized saline under the same conditions. On the fifth day, after weighing, the mice were sacrificed by cervical dislocation, and their lung tissues were dissected, weighed, and used to calculate the lung index and lung index inhibition rate. The lung tissues were also retained for virus load, pathological examination, and inflammatory factor detection. The results were statistically analyzed using the t-test for intergroup comparisons.
After dissecting the mice, the lung tissues were collected and stored in separate containers at −80° C. in a low-temperature freezer. The lung tissues were then removed from the −80° C. freezer and placed in a clean mortar. A small amount of liquid nitrogen was poured into the mortar, and the tissues were ground into powder using a pestle. The powder was collected in a 1.5 ml centrifuge tube, and 1 ml of TRIzol Reagent was immediately added. The tube was gently tapped at the bottom to mix the sample and ensure it was resuspended as soon as possible. The centrifuge tube was then placed horizontally at room temperature and incubated for 20 minutes. Next, it was centrifuged at 4° C. and 12,000 rpm for 10 minutes. The clear supernatant was transferred to a new 1.5 ml centrifuge tube, and 0.2 ml of chloroform was added. The tube was tightly capped, vigorously shaken for 15 seconds, and then incubated at room temperature for 2-3 minutes until the liquid separated into layers. After centrifuging at 4° C. and 12,000 rpm for 15 minutes, the transparent supernatant was carefully transferred to a new 1.5 ml centrifuge tube. Then, 0.5 ml of isopropanol was added, mixed well, and incubated at room temperature for 30 minutes. Following centrifugation at 4° C. and 12,000 rpm for 10 minutes, the supernatant was discarded. The precipitate was gently washed with 1 ml of 75% ethanol (to allow the white precipitate to float slightly), and then centrifuged at 4° C. and 7,500 rpm for 5 minutes. The supernatant was completely aspirated, and the RNA precipitate was briefly dried for 5-10 minutes. The precipitate was then dissolved in 20 μl of DEPC (Diethylpyrocarbonate)-treated water and stored in a −80° C. low-temperature freezer.
Treatment of Control Nucleic Acid: DEPC-H2O was used as a negative control. For the positive control, a series of four concentrations were prepared by gradient dilution at 10^7, 10^6, 10^5, and 10^4 copies/ml.
Reagent Preparation: Mix n×18 μl of RSV nucleic acid fluorescent PCR detection mixture, n×1 μl of internal control, and n×1 μl of RT-PCR enzyme (where n is the number of reaction tubes). Shake vigorously for a few seconds and centrifuge at 3000 rpm for a few seconds.
Sample Addition: Dispense 20 μl of the above mixture into each PCR tube. Then, add 5 μl of sample nucleic acid extract, DEPC-H2O, and positive control to the respective PCR tubes. Tightly close the tube caps, centrifuge for a few seconds to ensure all liquids are at the bottom, and immediately proceed with PCR amplification.
PCR Amplification: Place the reaction tubes in a quantitative fluorescent PCR instrument. Set the cycling parameters as follows: 45° C. for 10 minutes; 95° C. for 15 minutes; then 40 cycles of 95° C. for 15 seconds→60° C. for 60 seconds. Single-point fluorescent detection is performed at 60° C., with a reaction volume of 25 μl.
Fluorescent Channel Selection: Select the FAM and HEX/VIC/JOE channels for detection. […]

[3] = system: Human Coronavirus 229E (HCoV-229E); format: in vivo
[4] = 37.5 mg/ml nebulization 25 min once daily 4 days
[5] = 75 mg/ml nebulization 25 min once daily 4 days

**Q.** For COC(=O)C1=CO[C@@H](O[C@@H]2O[C@H](CO[C@@H]3O[C@H](CO)[C@@H](O)[C@H](O)[C@H]3O)[C@@H](O)[C@H](O)[C@H]2O)[C@@H]2C(CO)=CC[C@H]12 [Genipin-1-β-D-gentiobioside], which “Inhibition Rate (lung index)” value ([1]; 9.375 mg/ml inhalation 25 min) is on record?
**A.** 65.98%

**Q.** And the “Lung Index” value ([1]; 9.375 mg/ml inhalation 25 min)?
**A.** 0.77 ± 0.08 g lung weight × 100 g/body weight

**Q.** What about the “Inhibition Rate (lung index)” value ([1]; 18.75 mg/ml inhalation 25 min) of the same compound?
**A.** 65.59%

**Q.** What about the “Lung Index” value ([1]; 18.75 mg/ml inhalation 25 min) of the same compound?
**A.** 0.77 ± 0.08 g lung weight × 100 g/body weight

**Q.** And the “Inhibition Rate (lung index)” value ([1]; 37.5 mg/ml inhalation 25 min)?
**A.** 64.22%

**Q.** And the “Lung Index” value ([1]; 37.5 mg/ml inhalation 25 min)?
**A.** 0.77 ± 0.05 g lung weight × 100 g/body weight

**Q.** And the “Inhibition Rate (lung index)” value ([1]; 75 mg/ml inhalation 25 min)?
**A.** 109.19%

**Q.** And the “Lung Index” value ([1]; 75 mg/ml inhalation 25 min)?
**A.** 0.71 ± 0.05 g lung weight × 100 g/body weight

**Q.** What about the “Virus titer in the lung tissue vs model control group” value (SARS-CoV-2; 37.5 mg/kg, P<0.05) of the same compound?
**A.** significantly reduced the virus titer

**Q.** What about the “Virus titer in the lung tissue vs model control group” value (SARS-CoV-2; 75 mg/kg, P<0.01) of the same compound?
**A.** significantly reduced the virus titer

**Q.** And the “Inhibition Rate (viral load)” value [2, 4]?
**A.** 57.54% and 57.43%

**Q.** And the “Viral Load in lung tissue” value [2, 4]?
**A.** 22127.79 ± 30384.54 copies/ng

**Q.** What about the “Inhibition Rate (viral load)” value [2, 5] of the same compound?
**A.** 56.08%

**Q.** And the “Viral Load in lung tissue” value [2, 5]?
**A.** 22745.57 ± 13287.06 copies/ng

**Q.** What about the “Inhibition Rate (lung index)” value ([3]; 37.5 mg/kg/d i.v. 4 days) of the same compound?
**A.** 75.12%

**Q.** What about the “Lung Index” value ([3]; 37.5 mg/kg/d i.v. 4 days) of the same compound?
**A.** 0.95 ± 0.11 g lung weight × 100 g/body weight

**Q.** What about the “Inhibition Rate (lung index)” value ([3]; 75 mg/kg/d i.v. 4 days) of the same compound?
**A.** 71.04%

**Q.** And the “Lung Index” value ([3]; 75 mg/kg/d i.v. 4 days)?
**A.** 0.96 ± 0.12 g lung weight × 100 g/body weight

**Q.** And the “Inhibition Rate (lung index)” value ([3]; 150 mg/kg/d i.v. 4 days)?
**A.** 99.06%

**Q.** What about the “Lung Index” value ([3]; 150 mg/kg/d i.v. 4 days) of the same compound?
**A.** 0.89 ± 0.06 g lung weight × 100 g/body weight
